Reference: ChEMBL document CHEMBL4308841, “Synthesis, in vitro antiproliferative activity, and kinase inhibitory effects of pyrazole-containing diarylureas and diarylamides” (Eur J Med Chem, 2018)

How the values were obtained:
[1] = test system: SK-MEL-28; experiment: Growth inhibition of human SK-MEL-28 cells incubated for 48 hrs by sulforhodamine B assay; assay type: functional, cell-based; conditions: SK-MEL-28, 48 h
[2] = test system: OVCAR-5; experiment: Growth inhibition of human OVCAR5 cells assessed as cell growth at 0.01 uM incubated for 48 hrs by sulforhodamine B assay relative to control; assay type: functional; conditions: OVCAR-5, 48 h, read-out: Activity
[3] = test system: SR; experiment: Growth inhibition of human SR cells incubated for 48 hrs by sulforhodamine B assay; assay type: functional, cell-based
[4] = test system: 786-0; experiment: Growth inhibition of human 786-0 cells assessed as cell growth at 0.01 uM incubated for 48 hrs by sulforhodamine B assay relative to control; assay type: functional; conditions: 786-0, 48 h, read-out: Activity
[5] = test system: M14; experiment: Growth inhibition of human M14 cells assessed as cell growth at 100 uM incubated for 48 hrs by sulforhodamine B assay relative to control; assay type: functional; conditions: M14, 48 h, read-out: Activity
[6] = test system: NCI-H322M; experiment: Growth inhibition of human NCI-H322M cells assessed as cell growth at 100 uM incubated for 48 hrs by sulforhodamine B assay relative to control; assay type: functional; conditions: read-out: Activity
[7] = test system: HT-29; experiment: Growth inhibition of human HT-29 cells assessed as cell growth at 1 uM incubated for 48 hrs by sulforhodamine B assay relative to control; assay type: functional; conditions: HT-29, 48 h, read-out: Activity
[8] = test system: U-251; experiment: Growth inhibition of human U251 cells incubated for 48 hrs by sulforhodamine B assay; assay type: functional, cell-based; conditions: U-251, 48 h
[9] = test system: A498; experiment: Growth inhibition of human A498 cells assessed as cell growth at 1 uM incubated for 48 hrs by sulforhodamine B assay relative to control; assay type: functional; conditions: A498, 48 h, read-out: Activity
[10] = test system: MDA-MB-435; experiment: Growth inhibition of human MDA-MB-435 cells assessed as cell growth at 0.1 uM incubated for 48 hrs by sulforhodamine B assay relative to control; assay type: functional; conditions: MDA-MB-435, 48 h, read-out: Activity
[11] = test system: SN12C; experiment: Growth inhibition of human SN12C cells assessed as cell growth at 0.1 uM incubated for 48 hrs by sulforhodamine B assay relative to control; assay type: functional; conditions: read-out: Activity
[12] = test system: IGROV-1; experiment: Growth inhibition of human IGROV1 cells incubated for 48 hrs by sulforhodamine B assay; assay type: functional, cell-based; conditions: IGROV-1, 48 h
[13] = test system: SW-620; experiment: Growth inhibition of human SW620 cells assessed as cell growth at 0.01 uM incubated for 48 hrs by sulforhodamine B assay relative to control; assay type: functional; conditions: SW-620, 48 h, read-out: Activity
[14] = test system: RPMI-8226; experiment: Growth inhibition of human RPMI8226 cells assessed as cell growth at 0.01 uM incubated for 48 hrs by sulforhodamine B assay relative to control; assay type: functional; conditions: RPMI-8226, 48 h, read-out: Activity
[15] = test system: NCI-H322M; experiment: Growth inhibition of human NCI-H322M cells incubated for 48 hrs by sulforhodamine B assay; assay type: functional, cell-based
[16] = test system: SK-MEL-5; experiment: Growth inhibition of human SK-MEL-5 cells assessed as cell growth at 1 uM incubated for 48 hrs by sulforhodamine B assay relative to control; assay type: functional; conditions: SK-MEL-5, 48 h, read-out: Activity
[17] = test system: Hs-578T; experiment: Growth inhibition of human Hs578T cells assessed as cell growth at 0.1 uM incubated for 48 hrs by sulforhodamine B assay relative to control; assay type: functional; conditions: read-out: Activity
[18] = test system: NCI-H322M; experiment: Growth inhibition of human NCI-H322M cells assessed as cell growth at 0.01 uM incubated for 48 hrs by sulforhodamine B assay relative to control; assay type: functional; conditions: read-out: Activity
[19] = test system: IGROV-1; experiment: Growth inhibition of human IGROV1 cells assessed as cell growth at 0.01 uM incubated for 48 hrs by sulforhodamine B assay relative to control; assay type: functional; conditions: IGROV-1, 48 h, read-out: Activity
[20] = test system: T47D; experiment: Growth inhibition of human T47D cells assessed as cell growth at 0.01 uM incubated for 48 hrs by sulforhodamine B assay relative to control; assay type: functional; conditions: read-out: Activity
[21] = test system: Malme-3M; experiment: Growth inhibition of human MALME-3M cells incubated for 48 hrs by sulforhodamine B assay; assay type: functional, cell-based
[22] = test system: UACC-257; experiment: Growth inhibition of human UACC257 cells assessed as cell growth at 1 uM incubated for 48 hrs by sulforhodamine B assay relative to control; assay type: functional; conditions: UACC-257, 48 h, read-out: Activity
[23] = test system: OVCAR-8; experiment: Growth inhibition of human OVCAR8 cells assessed as cell growth at 100 uM incubated for 48 hrs by sulforhodamine B assay relative to control; assay type: functional; conditions: OVCAR-8, 48 h, read-out: Activity
[24] = test system: MOLT-4; experiment: Growth inhibition of human MOLT4 cells assessed as cell growth at 1 uM incubated for 48 hrs by sulforhodamine B assay relative to control; assay type: functional; conditions: MOLT-4, 48 h, read-out: Activity
[25] = test system: CAKI-1; experiment: Growth inhibition of human Caki1 cells assessed as cell growth at 1 uM incubated for 48 hrs by sulforhodamine B assay relative to control; assay type: functional; conditions: CAKI-1, 48 h, read-out: Activity
[26] = test system: CAKI-1; experiment: Growth inhibition of human Caki1 cells assessed as cell growth at 100 uM incubated for 48 hrs by sulforhodamine B assay relative to control; assay type: functional; conditions: CAKI-1, 48 h, read-out: Activity
[27] = test system: SNB-75; experiment: Growth inhibition of human SNB75 cells incubated for 48 hrs by sulforhodamine B assay; assay type: functional, cell-based; conditions: SNB-75, 48 h
[28] = read-out: pLC50 (the source's name) (converted)
[29] = read-out: LC50 (the source's name)

COc1cc(Cl)cc(-c2nn(-c3cccc(NC(=O)Nc4cc(C(F)(F)F)cc(C(F)(F)F)c4)c3)cc2-c2ccncc2)c1
IC50 [1]: 900 nM
GI50 ([1]; read-out: GI50): 900 nM
TGI ([1]; read-out: TGI): 4.93 µM
GI50 ([1]; read-out: pGI50 (converted)): 891 nM
CC50 [1, 28]: 69.2 µM
TGI ([1]; read-out: pTGI (converted)): 4.9 µM
growth at 0.01 µM [2]: 99%
IC50 [3]: 450 nM
GI50 ([3]; read-out: GI50): 452 nM
CC50 [3, 29]: > 100 µM
TGI ([3]; read-out: TGI): 3.31 µM
GI50 ([3]; read-out: pGI50 (converted)): 447 nM
CC50 [3, 28]: > 100 µM
TGI ([3]; read-out: pTGI (converted)): 3.31 µM
growth at 0.01 µM [4]: 96%
growth at 100 µM [5]: -82%
growth at 100 µM [6]: -78%
growth at 1 µM [7]: 23%
IC50 [8]: 320 nM
GI50 ([8]; read-out: GI50): 324 nM
CC50 [8, 29]: 43 nM
TGI ([8]; read-out: TGI): 1310 nM
GI50 ([8]; read-out: pGI50 (converted)): 324 nM
CC50 [8, 28]: 4370 nM
TGI ([8]; read-out: pTGI (converted)): 1320 nM
growth at 1 µM [9]: 37%
growth at 0.1 µM [10]: 98%
growth at 0.1 µM [11]: 97%
IC50 [12]: 570 nM
GI50 ([12]; read-out: GI50): 572 nM
CC50 [12, 29]: > 100 µM
TGI ([12]; read-out: TGI): 12.6 µM
GI50 ([12]; read-out: pGI50 (converted)): 575 nM
CC50 [12, 28]: > 100 µM
TGI ([12]; read-out: pTGI (converted)): 12.6 µM
growth at 0.01 µM [13]: 98%
growth at 0.01 µM [14]: 93%
IC50 [15]: 930 nM
GI50 ([15]; read-out: GI50): 933 nM
TGI ([15]; read-out: TGI): 10.9 µM
GI50 ([15]; read-out: pGI50 (converted)): 933 nM
CC50 [15, 28]: 46.8 µM
TGI ([15]; read-out: pTGI (converted)): 11 µM
growth at 1 µM [16]: 50%
growth at 0.1 µM [17]: 95%
growth at 0.01 µM [18]: 100%
growth at 0.01 µM [19]: 103%
growth at 0.01 µM [20]: 96%
IC50 [21]: 530 nM
GI50 ([21]; read-out: GI50): 530 nM
CC50 [21, 29]: > 100 µM
TGI ([21]; read-out: TGI): 3.57 µM
GI50 ([21]; read-out: pGI50 (converted)): 537 nM
CC50 [21, 28]: > 100 µM
TGI ([21]; read-out: pTGI (converted)): 3.55 µM
growth at 1 µM [22]: 23%
growth at 100 µM [23]: -62%
growth at 1 µM [24]: 10%
growth at 1 µM [25]: 22%
growth at 100 µM [26]: -61%
IC50 [27]: 850 nM
GI50 ([27]; read-out: GI50): 848 nM
TGI ([27]; read-out: TGI): 5.83 µM
GI50 ([27]; read-out: pGI50 (converted)): 851 nM
CC50 [27, 28]: 70.8 µM
TGI ([27]; read-out: pTGI (converted)): 5.89 µM
